From patent publication US20110269812A1, “NOVEL BENZYLIDENE-INDOLINONE AND THEIR MEDICAL AND DIAGNOSTIC USES” (Agency for Science, Technology and Research, priority 2008, published 2011)
Like-named read-outs stand apart in the source and are kept apart here.

What was measured:
[1] = tested on: phospho-Erk, phospho-Akt, PCNA, cyclin D1, cleaved PARP, Bax, Bcl-xL; assay: Immunoblot of signalling, cell cycling and apoptosis markers in HuH7 or HepG2; format: cell-based, human; conditions: HuH7 or HepG2, 0, 1, 5 or 10 μM, 24 h
Protocol: HuH7 or HepG2 cells were treated with increasing concentration of Compound 47 (0, 1, 5 or 10 μM) for 24 h. Cell lysates were harvested and immunoblotted against cleaved PARP, phospho-Erk, phospho-Akt, PCNA, cyclin D1, Bax and Bcl-xL, with HSP60 as loading control.
Protein concentrations were assayed by BCA method (Pierce, Rockford, Ill.). Samples were resolved using 6-10% SDS-PAGE and transferred to nitrocellulose or PVDF membranes by tank transfer. Immunodetection was by chemiluminescence (SuperSignal, Pierce) using specific antibodies diluted in PBS with 0.05% (v/v) Tween 20 and 5% (w/v) powdered milk or BSA. Anti-phospho-IGF-1R, anti-phospho-EphA2, anti-phospho-Erk, anti-phospho-Akt, anti-Bax, anti-BCL-xL were from Cell Signaling Technology (Beverly, Mass.); anti-PCNA and anti-HSP60 from Santa Cruz Biotechnology (Santa Cruz, Calif.); anti-cyclin-D1 from BD Pharmingen (San Jose, Calif.). Secondary antibodies were anti-mouse and anti-rabbit HRP-conjugated antibodies (Pierce).
Next, the mechanism of Compound 47's anti-proliferative effects was investigated. […] However, there was little effect on the mitochondrial apoptotic players Bax and BCL-xL.

[2] = tested on: AFP; assay: AFP transcription in HuH7 by quantitative real-time PCR; format: cell-based, human; conditions: HuH7, 10 μM, 24 h, normalized against 18S mRNA
[3] = tested on: HCT116 cells; assay: Cell cycle of synchronized HCT116 cells by flow cytometry (FACS); format: cell-based, human; conditions: for Proportion of cells in G1 / Proportion of cells in G2/M / Proportion of cells in S / Proportion of cells in Sub-G1: 24 h; for type of cell cycle arrest caused: HCT116 cells, ≈1.5 × IC50, 24 h
Protocol: HCT116 cells were grown to confluence and maintained in this state for at least 5 days without change of media. The serum starved cells were then trypsinized and subcultured at densities of 5×10^5 cells/well in six-well plates. Growth media contained 10% fetal calf serum. The test compound was added either immediately to cells synchronized at G1 phase, or 24 h later when cells were synchronized at G2 phase. The cells were incubated with test compound for 24 h from the time of addition. After this time, the cells were harvested, trypsinized and fixed in 70% ice-cold ethanol for a minimum of 24 h. After centrifugation, the supernatant was discarded and the pellet was treated with RNase A (200 μg/ml) for 30 min at room temperature, followed by cell staining using propidium iodide at a final concentration of 20 μg/ml. The stained cells were then analyzed for cell cycle distribution in the sub-G1, G1, S and G2/M phases on a Dako Cytomation Cyan LX (Dako Colorado, Fort Collins, Colo., USA) equipped with an argon solid state laser (488 nm) using the Summit (version 4.3) software. Compounds were tested at a concentration of ≈1.5×IC50, with IC50 determined by the MTT assay on HCT116 cells.
To have a better understanding of the mechanisms underlying the antiproliferative activities of the compounds listed in Table 5, their effects on the cell cycle was investigated by fluorescence-activated cell sorter (FACS) analysis using flow cytometry. The experiments were designed to examine the effects of the test compounds on synchronized cell populations at the GI or G2/M phase. G1 synchronized cells were obtained by growing cells to confluence for up to 5 days and then stimulating their re-entry into the cell cycle by sub-culturing at lower densities. After 24 hours of growth, these cells would be aligned at the G2/M phase.
Cells aligned at the G2/M phase were similarly treated.

[4] = target: T1, Insulin R (Homo sapiens, UniProt P06213); assay: Human phospho-RTK array, HuH7: Insulin R; format: cell-based; conditions: 24 h, untreated 0.74
T1 construct: endogenous in cells; host or cells: HuH7
Protocol: (§1) Kinase phosphorylation changes were determined with human phospho-RTK array.
(§2) Cells harvesting, hybridization with RTK array and incubation with anti-phosphotyrosine were performed according to manufacturer's instruction. Imaging and quantification of the spots intensities was with Fujifilm LAS-3000 (Tokyo, Japan). Average signal of the duplicate spots for each RTK was determined.

[5] = tested on: HCT116 (human colon cancer cell line); assay: Antiproliferative MTT assay, HCT116; format: cell-based; conditions: 72 h incubation, mean ± SD
Protocol: The antiproliferative activity of the compounds according to the invention was determined by the MTT assay on the following cell lines: MCF7 (human breast cancer cell line), HCT116 (human colon cancer cell line), and CCL186 (normal human diploid embryonic lung fibroblast). […] MCF7 and CCL186 cells were cultured in Eagle's Minimum Essential Medium (EMEM) with 1 mM sodium pyruvate, 1.5 g/L sodium bicarbonate, 2 mM L-glutamine supplemented with 10% FBS and 0.01% antibiotics. HCT116 cells were cultured in McCoy's 5A Medium with 2.2 g/L sodium bicarbonate supplemented with […] and 0.01% antibiotics. Cells were plated at the following densities: 10000 cells/well (MCF7), 4000 cells/well (HCT116), 5000 cells/well (CCL186). They were grown for 24 h in a 96-well plate, with 100 μl of corresponding medium in each well. The test compounds were prepared in DMSO and diluted to a series of concentrations with medium. Not more than 1% DMSO (final concentration) was present in each well. The test compounds were incubated with the cells for 72 h, after which 100 μl MTT solution (0.5 mg/ml in 1× PBS) was added for 3 h and the cells lysed to release the formazan product. The latter was dissolved in DMSO (150 μl) and absorbance determined within 30 min at 590 nm on a microtitre plate reader. Cell survival was given by the expression:
Cell survival (%)=[(Acells+test compound−Ablank)/(Auntreated cells−Ablank)]×100
where A is the absorbance of formazan measured at 590 nm in the test (Acells+test compound), control (Auntreated cells) or blank (Ablank) wells. Each concentration of test compound was evaluated on 3 separate occasions. […] The MTT assay was also carried out on Hepa1c1c7 cells for the purpose of determining cytotoxicity of test compounds. The same procedure was adopted except that the incubation period of compound with cells was 48 h, instead of 72 h.
The compounds were initially screened at a fixed concentration of 10 μM on the human cancer cell lines HCT116 and MCF7 cells.

[6] = target: T2, EphA2 (Homo sapiens, UniProt P29317); assay: Human phospho-RTK array, HuH7: EphA2; format: cell-based; conditions: 24 h, untreated 0.07
T2 construct: we examined the constitutively phosphorylated IGF-1R, EphA2 and Tyro3; endogenous in cells; host or cells: HuH7
Protocol: as §1, §2

[7] = HCT 116 cells released from G1 Block, 15 μM
[8] = HCT 116 cells released from G2 Block, 15 μM
[9] = Homo sapiens, HCT-116, 72 h, n = 3
[10] = HCT 116 cells released from G1 Block, 5 μM
[11] = HCT 116 cells released from G2 Block, 5 μM
[12] = HCT 116 cells released from G2 Block, 2.5 μM

T2 sequence (P29317 24-976): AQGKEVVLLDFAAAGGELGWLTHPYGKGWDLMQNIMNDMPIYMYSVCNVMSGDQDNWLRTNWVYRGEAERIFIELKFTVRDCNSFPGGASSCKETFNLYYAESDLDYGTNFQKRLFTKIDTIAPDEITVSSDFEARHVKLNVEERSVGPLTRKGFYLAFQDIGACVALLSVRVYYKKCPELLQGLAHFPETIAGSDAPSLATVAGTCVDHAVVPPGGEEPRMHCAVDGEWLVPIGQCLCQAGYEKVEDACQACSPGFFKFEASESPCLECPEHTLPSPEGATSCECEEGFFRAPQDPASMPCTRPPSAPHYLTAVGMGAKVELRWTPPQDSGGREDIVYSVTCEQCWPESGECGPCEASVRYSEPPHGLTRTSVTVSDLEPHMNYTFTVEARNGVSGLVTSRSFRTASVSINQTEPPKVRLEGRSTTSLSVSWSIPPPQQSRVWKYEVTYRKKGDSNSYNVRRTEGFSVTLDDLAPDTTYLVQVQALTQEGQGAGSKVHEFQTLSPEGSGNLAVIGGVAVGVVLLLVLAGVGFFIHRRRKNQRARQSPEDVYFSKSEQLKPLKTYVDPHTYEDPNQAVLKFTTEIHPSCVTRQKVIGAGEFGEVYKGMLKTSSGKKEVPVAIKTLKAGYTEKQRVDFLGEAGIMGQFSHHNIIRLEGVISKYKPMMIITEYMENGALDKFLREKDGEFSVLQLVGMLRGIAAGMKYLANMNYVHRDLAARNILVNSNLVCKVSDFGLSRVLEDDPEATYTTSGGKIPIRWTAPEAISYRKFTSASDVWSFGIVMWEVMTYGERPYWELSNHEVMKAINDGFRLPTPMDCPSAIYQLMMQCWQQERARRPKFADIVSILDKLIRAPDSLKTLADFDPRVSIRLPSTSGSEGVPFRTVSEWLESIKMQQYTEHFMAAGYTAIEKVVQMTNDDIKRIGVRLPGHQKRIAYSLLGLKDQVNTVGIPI
T1 sequence (P06213 28-1382): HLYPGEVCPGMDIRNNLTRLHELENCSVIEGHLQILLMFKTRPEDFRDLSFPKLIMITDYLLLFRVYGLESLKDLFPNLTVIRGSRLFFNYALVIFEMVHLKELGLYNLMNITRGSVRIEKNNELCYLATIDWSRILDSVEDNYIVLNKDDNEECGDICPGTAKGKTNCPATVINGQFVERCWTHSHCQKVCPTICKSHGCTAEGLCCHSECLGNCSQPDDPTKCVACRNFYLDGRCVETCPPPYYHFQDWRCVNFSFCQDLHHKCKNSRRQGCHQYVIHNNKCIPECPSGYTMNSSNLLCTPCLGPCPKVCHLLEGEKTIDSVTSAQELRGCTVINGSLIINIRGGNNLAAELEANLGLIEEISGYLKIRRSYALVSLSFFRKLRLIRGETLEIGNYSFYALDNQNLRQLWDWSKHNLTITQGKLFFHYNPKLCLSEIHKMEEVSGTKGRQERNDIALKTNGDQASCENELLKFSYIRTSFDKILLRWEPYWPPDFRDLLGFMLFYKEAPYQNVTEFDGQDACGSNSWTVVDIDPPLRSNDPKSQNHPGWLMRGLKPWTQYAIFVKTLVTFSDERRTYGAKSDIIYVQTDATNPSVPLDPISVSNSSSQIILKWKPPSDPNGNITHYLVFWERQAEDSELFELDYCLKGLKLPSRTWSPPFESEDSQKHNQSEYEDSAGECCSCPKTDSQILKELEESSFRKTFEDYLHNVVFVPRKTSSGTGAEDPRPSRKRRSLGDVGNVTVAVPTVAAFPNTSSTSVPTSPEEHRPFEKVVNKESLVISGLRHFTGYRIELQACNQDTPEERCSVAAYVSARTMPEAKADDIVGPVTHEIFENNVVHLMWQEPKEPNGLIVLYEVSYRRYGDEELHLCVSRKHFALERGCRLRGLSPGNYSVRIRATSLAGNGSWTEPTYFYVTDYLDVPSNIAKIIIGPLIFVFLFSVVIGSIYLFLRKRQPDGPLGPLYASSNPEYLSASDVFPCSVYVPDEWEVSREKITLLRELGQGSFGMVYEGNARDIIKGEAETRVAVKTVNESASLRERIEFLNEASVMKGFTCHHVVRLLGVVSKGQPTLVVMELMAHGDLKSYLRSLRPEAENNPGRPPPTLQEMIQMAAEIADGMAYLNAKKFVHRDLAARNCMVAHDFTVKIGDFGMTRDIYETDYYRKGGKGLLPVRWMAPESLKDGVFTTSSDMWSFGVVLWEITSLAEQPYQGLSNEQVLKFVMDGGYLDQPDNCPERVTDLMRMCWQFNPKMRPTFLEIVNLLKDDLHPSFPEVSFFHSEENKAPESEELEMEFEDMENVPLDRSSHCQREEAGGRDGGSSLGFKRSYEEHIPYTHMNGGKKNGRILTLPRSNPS

Row | SMILES | Proportion of cells in G1 [3, 7] | Proportion of cells in G2/M [3, 7] | Proportion of cells in S [3, 7] | Proportion of cells in Sub-G1 [3, 7] | Proportion of cells in G1 [3, 8] | Proportion of cells in G2/M [3, 8] | Proportion of cells in S [3, 8] | Proportion of cells in Sub-G1 [3, 8] | type of cell cycle arrest caused [3] | IC50 ([5]; n = 3, read-out: IC50 HCT-116) | IC50 [5, 9] | further results
1 | O=C1Nc2cc(Cl)ccc2/C1=C\c1cccc(C(F)(F)F)c1 [Compound 47, (E)-6-Chloro-3-(3-(trifluoromethyl)benzylidene)indolin-2-one] | 65.55% | 15.13% | 7.10% | 12.39% | 53.47% | 28.39% | 8.05% | 10.62% | G1 arrest | 7.5 ± 0.4 µM | < 10 µM | Bax and BCL-xL (mitochondrial apoptotic players) [1]: little effect; Erk and Akt phosphorylation [1]: dose-dependent inhibition; cleaved PARP (apoptotic marker) [1]: confirmed the participation of pro-apoptotic mechanism; cyclin-D1 and PCNA expression (cell cycling markers) [1]: corresponding reduction; AFP transcript vs untreated controls [2]: significantly repressed to one-third; Insulin R Phosphorylation ([4]; serum starved HuH7, 1 μM): 0.75 Arbitrary units; Insulin R Phosphorylation ([4]; serum starved HuH7, 5 μM): 0.4 Arbitrary units; Insulin R Phosphorylation ([4]; serum starved HuH7, 10 μM): 0.38 Arbitrary units; EphA2 Phosphorylation ([6]; serum starved HuH7, 1 μM): 0.09 Arbitrary units; EphA2 Phosphorylation ([6]; serum starved HuH7, 5 μM): 0.05 Arbitrary units; EphA2 Phosphorylation ([6]; serum starved HuH7, 10 μM): 0.02 Arbitrary units
2 | COc1ccc2c(c1)NC(=O)/C2=C/c1ccc(OC)c(O)c1 [Compound 45, (E)-3-(3-Hydroxy-4-methoxybenzylidene)-6-methoxyindolin-2-one] | 17.49% | 56.49% | 21.13% | 5.26% | 26.01% | 43.57% | 15.36% | 15.54% | G2 arrest | 7.8 ± 0.9 µM | < 10 µM | –
3 | COc1ccc2c(c1)NC(=O)/C2=C/c1cccc(C(F)(F)F)c1 [Compound 48, (E)-6-Methoxy-3-(3-(trifluoromethyl)benzylidene)indolin-2-one] | – | – | – | – | – | – | – | – | G2 arrest | 3.8 ± 0.6 µM | – | Proportion of cells in G1 [3, 10]: 17.50%; Proportion of cells in G2/M [3, 10]: 59.16%; Proportion of cells in S [3, 10]: 19.12%; Proportion of cells in Sub-G1 [3, 10]: 4.39%; Proportion of cells in G1 [3, 11]: 30.55%; Proportion of cells in G2/M [3, 11]: 31.58%; Proportion of cells in S [3, 11]: 17.96%; Proportion of cells in Sub-G1 [3, 11]: 20.69%
4 | COc1cccc(/C=C2/C(=O)Nc3cc(OC)ccc32)c1 [Compound 42, (E)-6-Methoxy-3-(3-methoxybenzylidene)indolin-2-one] | – | – | – | – | – | – | – | – | G2 arrest | 1.3 ± 0.4 µM | – | Proportion of cells in G1 [3, 12]: 26.01%; Proportion of cells in G2/M [3, 12]: 43.57%; Proportion of cells in S [3, 12]: 15.36%; Proportion of cells in Sub-G1 [3, 12]: 30.54%
5 | O=C1Nc2cc(F)ccc2/C1=C\c1cccc(C(F)(F)F)c1 [Compound 46, (E)-6-Fluoro-3-(3-(trifluoromethyl)benzylidene)indolin-2-one] | 64.93% | 14.58% | 8.04% | 12.68% | 64.15% | 25.00% | 8.82% | 2.49% | G1 arrest | 8.9 ± 0.3 µM | < 10 µM | –
